Experimental data: ChEMBL document CHEMBL5465560, “Selectivity Literature for EUbOPEN Chemogenomic Library” (2024)
Values belong to the compound of their own block, whether it stands above or below them.

What was measured:
[1] = biological target: Mitogen-activated protein kinase 9 (Homo sapiens, UniProt P45984); conditions: at 10 µM
[2] = tested on: Tyrosine-protein kinase ABL1 (Homo sapiens), P00519 [Q252H]; assay: Selectivity interaction (KinomeScan (DiscoverX)) EUB0001049a ABL1; conditions: at 1 µM
[3] = biological target: Serine/threonine-protein kinase SIK1 (Homo sapiens) (UniProt P57059); assay: Selectivity interaction (Ambit KINOMEscan and KiNATiv profiling in Jurkat cells) EUB0000090b SIK1; type: cell-based; conditions: at 1 µM
Sequence of Serine/threonine-protein kinase SIK1 (Homo sapiens) (P57059 whole entry): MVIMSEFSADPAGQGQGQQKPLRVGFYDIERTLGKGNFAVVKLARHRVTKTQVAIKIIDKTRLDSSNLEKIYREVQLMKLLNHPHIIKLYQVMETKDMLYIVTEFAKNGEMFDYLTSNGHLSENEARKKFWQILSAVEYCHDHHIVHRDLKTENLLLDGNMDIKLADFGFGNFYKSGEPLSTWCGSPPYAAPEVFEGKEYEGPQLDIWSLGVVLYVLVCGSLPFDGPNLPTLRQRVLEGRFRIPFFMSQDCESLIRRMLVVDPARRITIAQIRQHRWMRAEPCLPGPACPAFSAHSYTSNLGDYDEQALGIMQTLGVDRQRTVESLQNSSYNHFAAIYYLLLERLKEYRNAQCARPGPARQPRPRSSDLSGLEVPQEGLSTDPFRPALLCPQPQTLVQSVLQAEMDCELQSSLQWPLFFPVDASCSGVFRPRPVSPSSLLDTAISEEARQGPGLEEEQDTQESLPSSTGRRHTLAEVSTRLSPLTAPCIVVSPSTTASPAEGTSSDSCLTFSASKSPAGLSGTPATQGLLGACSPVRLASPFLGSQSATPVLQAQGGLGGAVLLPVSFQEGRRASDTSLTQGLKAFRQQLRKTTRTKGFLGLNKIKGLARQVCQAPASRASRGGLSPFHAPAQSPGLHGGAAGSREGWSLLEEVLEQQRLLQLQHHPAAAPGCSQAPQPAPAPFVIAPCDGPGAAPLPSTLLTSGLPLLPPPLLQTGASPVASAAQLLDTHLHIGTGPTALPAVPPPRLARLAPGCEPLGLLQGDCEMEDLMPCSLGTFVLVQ

[4] = biological target: Ribosomal protein S6 kinase alpha-3 (Homo sapiens, UniProt P51812); assay: Selectivity interaction (ActivX KiNativ screen (kinase selectivity in THP-1 cell lysates)) EUB0000639a RPS6KA3; type: subcellular; conditions: lysate, at 0.2 µM
[5] = biological target: T1, Serine/threonine-protein kinase ULK3 (Homo sapiens) (UniProt Q6PHR2); assay: Selectivity interaction (ActivX KiNativ screen (kinase selectivity in THP-1 cell lysates)) EUB0000639a ULK3; type: subcellular; conditions: lysate, at 0.01 µM
T1 sequence (whole entry): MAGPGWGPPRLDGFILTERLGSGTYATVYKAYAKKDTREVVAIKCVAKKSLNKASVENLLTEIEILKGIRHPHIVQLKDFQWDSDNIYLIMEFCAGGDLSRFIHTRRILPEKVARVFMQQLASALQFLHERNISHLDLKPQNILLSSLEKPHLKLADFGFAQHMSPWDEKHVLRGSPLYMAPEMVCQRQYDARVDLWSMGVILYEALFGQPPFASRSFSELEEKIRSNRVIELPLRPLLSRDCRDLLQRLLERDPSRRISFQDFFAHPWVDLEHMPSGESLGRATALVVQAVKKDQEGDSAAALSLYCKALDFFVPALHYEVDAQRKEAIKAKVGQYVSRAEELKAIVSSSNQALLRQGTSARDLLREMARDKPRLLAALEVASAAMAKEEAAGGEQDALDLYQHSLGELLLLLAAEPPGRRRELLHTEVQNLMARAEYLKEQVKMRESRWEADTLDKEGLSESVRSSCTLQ

[6] = biological target: T2, Mitogen-activated protein kinase kinase kinase 5 (Homo sapiens) (UniProt Q99683); assay: Selectivity interaction (ActivX KiNativ screen (kinase selectivity in THP-1 cell lysates)) EUB0000639a MAP3K5; type: subcellular; conditions: lysate, at 1 µM
T2 sequence (whole entry): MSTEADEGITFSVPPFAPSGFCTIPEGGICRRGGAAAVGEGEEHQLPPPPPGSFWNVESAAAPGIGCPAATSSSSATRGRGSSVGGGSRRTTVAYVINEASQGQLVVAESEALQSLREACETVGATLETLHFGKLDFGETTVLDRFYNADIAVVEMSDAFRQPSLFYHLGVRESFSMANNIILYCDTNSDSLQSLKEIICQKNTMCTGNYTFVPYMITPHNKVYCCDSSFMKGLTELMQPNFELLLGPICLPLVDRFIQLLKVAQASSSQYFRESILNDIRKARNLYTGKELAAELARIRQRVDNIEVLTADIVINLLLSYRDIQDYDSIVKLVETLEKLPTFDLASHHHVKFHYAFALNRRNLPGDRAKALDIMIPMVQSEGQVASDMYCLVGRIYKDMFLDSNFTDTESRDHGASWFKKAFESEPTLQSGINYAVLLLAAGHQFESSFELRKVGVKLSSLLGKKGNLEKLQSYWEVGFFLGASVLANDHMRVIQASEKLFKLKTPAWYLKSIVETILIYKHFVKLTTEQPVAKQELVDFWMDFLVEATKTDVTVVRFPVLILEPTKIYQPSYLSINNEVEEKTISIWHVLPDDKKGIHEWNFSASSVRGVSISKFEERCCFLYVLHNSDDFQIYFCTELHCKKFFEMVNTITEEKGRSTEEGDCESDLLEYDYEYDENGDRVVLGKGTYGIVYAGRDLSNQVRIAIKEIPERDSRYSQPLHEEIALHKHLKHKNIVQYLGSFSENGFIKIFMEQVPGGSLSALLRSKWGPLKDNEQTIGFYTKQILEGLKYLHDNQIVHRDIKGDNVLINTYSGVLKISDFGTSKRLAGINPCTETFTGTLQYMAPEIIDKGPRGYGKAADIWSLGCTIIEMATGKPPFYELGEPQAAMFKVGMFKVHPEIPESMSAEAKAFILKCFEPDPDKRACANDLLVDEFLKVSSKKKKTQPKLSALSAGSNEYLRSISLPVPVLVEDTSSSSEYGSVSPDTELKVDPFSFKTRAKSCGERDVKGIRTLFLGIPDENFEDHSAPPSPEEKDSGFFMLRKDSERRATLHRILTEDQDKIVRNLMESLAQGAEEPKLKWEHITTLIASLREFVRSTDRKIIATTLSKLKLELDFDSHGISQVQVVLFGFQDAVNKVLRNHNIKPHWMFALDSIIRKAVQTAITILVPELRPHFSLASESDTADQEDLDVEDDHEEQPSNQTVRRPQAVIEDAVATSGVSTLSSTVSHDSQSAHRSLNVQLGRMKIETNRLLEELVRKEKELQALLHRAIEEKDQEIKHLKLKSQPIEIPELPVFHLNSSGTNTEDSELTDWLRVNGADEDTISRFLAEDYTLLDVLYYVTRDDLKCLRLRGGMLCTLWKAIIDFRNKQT

[7] = biological target: Tyrosine-protein kinase SYK (Homo sapiens, UniProt P43405); assay: Selectivity interaction (KinomeScan (DiscoverX)) EUB0001079a SYK; conditions: at 1 µM
[8] = biological target: Serine/threonine-protein kinase tousled-like 2 (Homo sapiens) (UniProt Q86UE8); assay: Selectivity interaction (KinomeScan (DiscoverX)) EUB0001079a TLK2; conditions: at 1 µM
[9] = biological target: Serine/threonine-protein kinase WNK4 (Homo sapiens) (UniProt Q96J92); assay: Selectivity interaction (KinomeScan (DiscoverX)) EUB0001079a WNK4; conditions: at 1 µM
[10] = biological target: Serine/threonine-protein kinase N2 (Homo sapiens, UniProt Q16513); assay: Selectivity interaction (KinomeScan (DiscoverX)) EUB0001079a PKN2; conditions: at 1 µM
Sequence of Serine/threonine-protein kinase N2 (Q16513 whole entry, looked up): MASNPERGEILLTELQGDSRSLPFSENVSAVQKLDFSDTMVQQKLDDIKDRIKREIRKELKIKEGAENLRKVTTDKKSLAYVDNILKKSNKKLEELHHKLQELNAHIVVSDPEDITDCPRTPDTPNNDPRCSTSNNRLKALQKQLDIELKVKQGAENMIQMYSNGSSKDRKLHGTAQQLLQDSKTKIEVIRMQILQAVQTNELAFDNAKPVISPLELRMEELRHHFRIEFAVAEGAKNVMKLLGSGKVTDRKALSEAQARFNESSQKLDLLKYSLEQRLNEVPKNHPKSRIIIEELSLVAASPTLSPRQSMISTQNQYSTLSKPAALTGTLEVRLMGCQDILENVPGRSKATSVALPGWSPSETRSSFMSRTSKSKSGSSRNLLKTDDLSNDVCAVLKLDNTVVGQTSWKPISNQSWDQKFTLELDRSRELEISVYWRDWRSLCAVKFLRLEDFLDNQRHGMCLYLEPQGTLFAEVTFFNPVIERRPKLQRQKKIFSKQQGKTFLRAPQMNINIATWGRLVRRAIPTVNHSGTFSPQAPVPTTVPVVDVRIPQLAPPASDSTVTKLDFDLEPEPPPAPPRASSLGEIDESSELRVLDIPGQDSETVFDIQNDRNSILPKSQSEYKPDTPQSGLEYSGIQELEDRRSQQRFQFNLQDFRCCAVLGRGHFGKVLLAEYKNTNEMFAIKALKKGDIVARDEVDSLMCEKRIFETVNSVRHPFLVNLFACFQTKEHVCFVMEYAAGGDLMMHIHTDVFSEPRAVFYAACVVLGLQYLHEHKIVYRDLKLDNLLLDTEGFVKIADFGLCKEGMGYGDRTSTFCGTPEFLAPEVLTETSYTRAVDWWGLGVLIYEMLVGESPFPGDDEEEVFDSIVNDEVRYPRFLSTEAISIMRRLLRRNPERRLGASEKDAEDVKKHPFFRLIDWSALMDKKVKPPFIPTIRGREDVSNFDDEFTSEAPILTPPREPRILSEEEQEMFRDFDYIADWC

[11] = biological target: Serine/threonine-protein kinase N1 (Homo sapiens, UniProt Q16512); assay: Selectivity interaction (KinomeScan (DiscoverX)) EUB0000655a PKN1; conditions: at 10 µM
Sequence of Serine/threonine-protein kinase N1 (Q16512 2-942 limits assumed): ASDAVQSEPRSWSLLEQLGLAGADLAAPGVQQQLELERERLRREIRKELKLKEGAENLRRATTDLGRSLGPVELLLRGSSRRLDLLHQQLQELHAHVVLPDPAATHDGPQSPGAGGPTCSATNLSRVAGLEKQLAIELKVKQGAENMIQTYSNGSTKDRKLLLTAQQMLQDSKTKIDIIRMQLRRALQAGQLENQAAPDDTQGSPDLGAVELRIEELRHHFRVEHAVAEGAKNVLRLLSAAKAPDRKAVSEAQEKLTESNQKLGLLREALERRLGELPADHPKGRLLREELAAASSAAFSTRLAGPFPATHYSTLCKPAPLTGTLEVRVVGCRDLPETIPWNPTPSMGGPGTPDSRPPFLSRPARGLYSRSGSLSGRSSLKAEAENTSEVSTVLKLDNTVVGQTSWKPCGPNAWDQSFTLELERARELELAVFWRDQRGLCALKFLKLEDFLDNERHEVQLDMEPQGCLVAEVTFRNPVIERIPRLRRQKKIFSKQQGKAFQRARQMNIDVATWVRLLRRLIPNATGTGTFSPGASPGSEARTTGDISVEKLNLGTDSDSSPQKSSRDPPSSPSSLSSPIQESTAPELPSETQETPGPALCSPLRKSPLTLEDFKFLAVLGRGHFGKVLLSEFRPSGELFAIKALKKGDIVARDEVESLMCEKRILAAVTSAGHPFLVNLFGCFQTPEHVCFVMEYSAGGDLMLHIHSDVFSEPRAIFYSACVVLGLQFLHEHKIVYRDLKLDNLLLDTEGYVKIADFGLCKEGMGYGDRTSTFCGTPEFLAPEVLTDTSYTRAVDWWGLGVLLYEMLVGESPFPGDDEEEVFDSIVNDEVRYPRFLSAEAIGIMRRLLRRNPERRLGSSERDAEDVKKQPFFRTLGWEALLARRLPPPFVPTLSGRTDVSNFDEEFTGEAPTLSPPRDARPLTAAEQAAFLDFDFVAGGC

[12] = biological target: Tyrosine-protein kinase receptor UFO (Homo sapiens) (UniProt P30530); assay: Selectivity interaction (KinomeScan (DiscoverX)) EUB0000618a AXL; conditions: at 10 µM
Sequence of Tyrosine-protein kinase receptor UFO (Homo sapiens) (P30530 whole entry): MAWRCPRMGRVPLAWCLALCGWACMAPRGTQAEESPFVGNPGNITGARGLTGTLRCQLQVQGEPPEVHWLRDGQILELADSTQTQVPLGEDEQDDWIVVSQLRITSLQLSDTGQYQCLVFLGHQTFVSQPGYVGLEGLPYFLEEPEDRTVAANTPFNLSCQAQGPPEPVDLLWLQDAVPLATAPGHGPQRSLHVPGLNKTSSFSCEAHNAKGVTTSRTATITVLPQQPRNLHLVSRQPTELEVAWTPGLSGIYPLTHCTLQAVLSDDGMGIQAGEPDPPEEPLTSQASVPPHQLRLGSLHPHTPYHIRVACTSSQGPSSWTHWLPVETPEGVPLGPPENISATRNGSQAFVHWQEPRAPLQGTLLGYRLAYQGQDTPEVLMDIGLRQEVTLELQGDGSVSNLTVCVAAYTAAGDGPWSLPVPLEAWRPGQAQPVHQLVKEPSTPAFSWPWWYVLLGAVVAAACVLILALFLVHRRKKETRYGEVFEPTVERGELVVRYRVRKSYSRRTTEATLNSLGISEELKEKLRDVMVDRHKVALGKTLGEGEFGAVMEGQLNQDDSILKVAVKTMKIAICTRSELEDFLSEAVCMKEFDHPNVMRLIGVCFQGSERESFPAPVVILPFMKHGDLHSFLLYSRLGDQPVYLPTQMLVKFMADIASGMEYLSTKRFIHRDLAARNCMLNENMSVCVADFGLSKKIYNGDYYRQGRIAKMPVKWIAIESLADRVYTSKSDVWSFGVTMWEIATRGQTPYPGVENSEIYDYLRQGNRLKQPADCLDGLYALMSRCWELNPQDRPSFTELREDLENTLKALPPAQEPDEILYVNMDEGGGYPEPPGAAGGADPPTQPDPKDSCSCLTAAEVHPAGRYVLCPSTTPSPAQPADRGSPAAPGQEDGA

[13] = biological target: Serine/threonine-protein kinase 35 (Homo sapiens) (UniProt Q8TDR2); assay: Selectivity interaction (KinomeScan (DiscoverX)) EUB0000607a STK35; conditions: at 10 µM
Sequence of Serine/threonine-protein kinase 35 (Homo sapiens) (Q8TDR2 whole entry): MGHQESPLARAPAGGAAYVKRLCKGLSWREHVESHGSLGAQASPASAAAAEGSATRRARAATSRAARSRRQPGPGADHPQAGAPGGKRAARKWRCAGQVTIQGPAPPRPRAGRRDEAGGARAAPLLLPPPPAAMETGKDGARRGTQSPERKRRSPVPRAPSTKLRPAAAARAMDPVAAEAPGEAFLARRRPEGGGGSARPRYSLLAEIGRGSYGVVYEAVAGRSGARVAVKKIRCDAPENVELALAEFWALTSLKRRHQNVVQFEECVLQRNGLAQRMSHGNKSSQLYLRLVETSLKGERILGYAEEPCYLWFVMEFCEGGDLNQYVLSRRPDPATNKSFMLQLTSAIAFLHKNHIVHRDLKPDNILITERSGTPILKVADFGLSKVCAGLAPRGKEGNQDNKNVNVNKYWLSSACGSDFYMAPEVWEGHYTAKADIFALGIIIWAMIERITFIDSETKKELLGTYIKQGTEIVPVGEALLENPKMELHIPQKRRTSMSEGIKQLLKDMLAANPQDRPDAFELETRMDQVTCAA

[14] = Selectivity interaction (Kinase panel (KiNativ target engagement assay in Jurkat cells)) EUB0001635a STLK6; conditions: Selectivity number of off-targets 0; Selectivity number of targets 233; Source Knowledge https://www.sciencedirect.com/science/article/pii/S2451945619300674?via%3Dihub; at 1 µM
[15] = biological target: MAP kinase-interacting serine/threonine-protein kinase 2 (Homo sapiens, UniProt Q9HBH9); assay: Selectivity interaction (KinomeScan (DiscoverX)) EUB0000666a MKNK2; conditions: at 10 µM
Sequence of MAP kinase-interacting serine/threonine-protein kinase 2 (Q9HBH9 whole entry, looked up): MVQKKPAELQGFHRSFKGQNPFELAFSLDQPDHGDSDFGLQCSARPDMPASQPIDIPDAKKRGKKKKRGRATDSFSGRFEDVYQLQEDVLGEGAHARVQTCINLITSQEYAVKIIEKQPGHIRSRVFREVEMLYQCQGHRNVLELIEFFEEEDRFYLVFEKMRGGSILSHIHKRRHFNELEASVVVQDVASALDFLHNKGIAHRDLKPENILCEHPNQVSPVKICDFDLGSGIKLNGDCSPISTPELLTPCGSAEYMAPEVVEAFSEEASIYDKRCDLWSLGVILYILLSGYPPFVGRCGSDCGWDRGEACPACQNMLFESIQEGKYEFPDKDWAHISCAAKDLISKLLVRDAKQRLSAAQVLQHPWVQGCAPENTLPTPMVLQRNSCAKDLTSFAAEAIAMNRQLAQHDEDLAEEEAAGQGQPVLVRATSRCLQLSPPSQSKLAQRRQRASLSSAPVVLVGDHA

Sequence of Mitogen-activated protein kinase 9 (P45984 whole entry, looked up): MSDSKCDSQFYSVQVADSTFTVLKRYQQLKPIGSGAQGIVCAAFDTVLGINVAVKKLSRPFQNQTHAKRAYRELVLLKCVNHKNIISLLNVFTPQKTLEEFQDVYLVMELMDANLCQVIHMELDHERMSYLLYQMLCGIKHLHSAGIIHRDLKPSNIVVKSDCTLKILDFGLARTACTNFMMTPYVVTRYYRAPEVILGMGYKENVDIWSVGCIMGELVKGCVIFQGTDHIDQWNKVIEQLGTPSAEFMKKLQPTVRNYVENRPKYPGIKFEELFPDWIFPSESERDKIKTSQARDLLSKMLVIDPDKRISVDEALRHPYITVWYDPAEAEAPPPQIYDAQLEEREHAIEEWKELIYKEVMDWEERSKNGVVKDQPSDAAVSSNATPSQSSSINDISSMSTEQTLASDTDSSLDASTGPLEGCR

Compound: Cc1cc([C@@H](C)Nc2ccccc2C(=O)O)c2nc(N3CCOCC3)cc(=O)n2c1 [AZD-6482]
% of control [1]: 66%

Compound: COc1cc(Nc2nc(C)cc(-c3cnn4nc(OC)ccc34)n2)cc(C(F)(F)F)c1
% of control [2]: 80%

Compound: CN(C)C/C=C/C(=O)Nc1ccc(C(=O)N2CCCC(Nc3ncc(Cl)c(-c4c[nH]c5ccccc45)n3)C2)cc1 (stereo not given)
% of control [3]: 98%

% of inhibition [4]: 0%
% of inhibition [5]: -8.9%
% of inhibition [6]: -29.6%
Compound: CC[C@@H]1[C@H](F)C(=O)N[C@@H]1COc1nccc2cc(C(N)=O)c(OC)cc12 [ZIMLOVISERTIB]

Compound: Nc1cnc(N2CCc3cc(S(=O)(=O)Nc4c(F)cc(Cl)cc4F)cc(N4CCCC4=O)c32)nc1 [TP-020n]
% of control [7]: 100%
% of control [8]: 79%
% of control [9]: 100%
% of control [10]: 100%

Compound: CN(C)CCOc1ccc(-c2nc(-c3ccncc3)c(-c3ccc4c(c3)CC/C4=N\O)[nH]2)cc1
% of control [11]: 92%

Compound: O[C@H]1CC[C@H](Nc2ncc3nc(Nc4c(F)cc(F)cc4F)n([C@H]4CCOC4)c3n2)CC1
% of control [12]: 86%

Compound: CNC(=O)Nc1ccc(-c2nc(N3CC4CCC(C3)O4)c3cnn(C4CCC5(CC4)OCCO5)c3n2)cc1
% of control [13]: 95%

Compound: C=CC(=O)Nc1ccc(C(=O)Nc2[nH]nc3c2CN(C(=O)N[C@H](CN(C)C)c2ccccc2)C3(C)C)cc1
% of engagement [14]: -0.5%

Compound: O=C(NOC[C@H](O)CO)c1ccc(F)c(F)c1Nc1ccc(I)cc1F
% of control [15]: 100%
